Measured values published in US8012975B2, “Antitumoral analogs of ET-743” (Pharma Mar, S.A., priority 2000, dated 2011).
Read-outs that look alike come from different tables or passages of the source.

Assays:
[1] = in vitro; settings: African green monkey
[2] = test system: P-388; experiment: Cytotoxic activity IC50, P-388; settings: Mus musculus, P388, read-out: CYTOTOXIC ACTIVITIY IC50 (μM) P-388
[3] = test system: A-549; experiment: Cytotoxic activity IC50, A-549; settings: Homo sapiens, A549, read-out: CYTOTOXIC ACTIVITIY IC50 (μM) A-549, A-549
[4] = test system: DU-145; experiment: Cytotoxic activity IC50, DU-145; settings: Homo sapiens, DU-145, read-out: CYTOTOXIC ACTIVITIY IC50 (μM) DU-145, DU-145
[5] = test system: HT-29; experiment: Cytotoxic activity IC50, HT-29; settings: Homo sapiens, HT-29, read-out: CYTOTOXIC ACTIVITIY IC50 (μM) HT-29, HT-29
[6] = test system: MEL-28; experiment: Cytotoxic activity IC50, MEL-28; settings: Homo sapiens, SK-MEL-28, read-out: CYTOTOXIC ACTIVITIY IC50 (μM) MEL-28, MEL-28
[7] = test system: A-549
[8] = test system: P-388
[9] = test system: HT-29
[10] = test system: DU-145
[11] = test system: MEL-28

Row | SMILES | IC50 [1] [nM] | IC50 [2] [µM] | IC50 [3] [µM] | IC50 [4] [µM] | IC50 [5] [µM] | IC50 [6] [µM] | IC50 [7] [nM] | IC50 [8] [nM] | IC50 [9] [nM] | IC50 [10] [nM] | IC50 [11] [nM]
1 | COCOc1c(OC)c(C)cc2c1[C@@H]1C3CC4=C(C(=O)C(O)=C(C)C4=O)[C@H](CNC(C)=O)N3[C@@H](C#N)[C@H](C2)N1C (stereo partly drawn) | > 18100 | – | – | – | – | – | – | – | – | – | –
2 | COC1=C(C)C(=O)C2=C(C1=O)[C@H](CNC(=O)[C@H](C)NC(=O)C(F)(F)F)N1C(C2)[C@H]2c3c(cc(C)c(OC)c3O)C[C@@H]([C@@H]1C#N)N2C (stereo partly drawn) | 100 | 0.01 | 0.01 | 0.01 | 0.01 | 0.01 | – | – | – | – | –
3 | COc1c(C)cc2c(c1O)[C@@H]1C3Cc4c(OC(C)=O)c(C)c5c(c4[C@H](CNC(=O)/C=C/c4ccccc4)N3[C@@H](O)[C@H](C2)N1C)OCO5 (stereo partly drawn) [drawing 113] | – | – | – | – | – | – | 0.1 | 0.1 | 0.1 | 0.1 | 0.1
4 | CCCC(=O)OC[C@H]1c2c(c(OC(C)=O)c(C)c3c2OCO3)CC2[C@H]3c4c(cc(C)c(OC)c4O)C[C@@H]([C@H](O)N21)N3C (stereo partly drawn) [drawing 156] | – | – | – | – | – | – | 0.1 | 0.1 | 0.1 | 0.1 | 0.1
5 | COc1c(C)cc2c(c1O)[C@@H]1C3Cc4c(OC(C)=O)c(C)c5c(c4[C@H](CNC(=O)CCc4ccccc4)N3[C@@H](C#N)[C@H](C2)N1C)OCO5 (stereo partly drawn) | – | – | – | – | – | – | 0.1 | 0.1 | 0.1 | 0.1 | 0.1
6 | C=CCOc1c(C)c2c(c3c1CC1[C@H]4c5c(cc(C)c(OC)c5OCOC)C[C@@H]([C@H](C#N)N1[C@H]3CN)N4C)OCO2 (stereo partly drawn) | 1800 | – | 1.8 | 1.8 | 1.8 | 1.8 | – | – | – | – | –
7 | COc1c(C)cc2c(c1O)[C@@H]1C3Cc4c(OC(C)=O)c(C)c5c(c4[C@H](COC(=O)CCc4ccccc4)N3[C@@H](O)[C@H](C2)N1C)OCO5 (stereo partly drawn) [drawing 158] | – | – | – | – | – | – | 0.1 | 0.1 | 0.1 | 0.1 | 0.1
8 | C/C=C(\OC(C)=O)C1=C(C2=COCO2)[C@H](CNC(=O)/C=C/c2ccccc2)N2C(C1)[C@H]1c3c(cc(C)c(OC)c3O)C[C@@H]([C@@H]2C#N)N1C (stereo partly drawn) | – | – | – | – | – | – | 0.1 | 0.1 | 0.1 | 0.1 | 0.1
9 | COC1=C(C)C(=O)C2=C3C1=NCC3N1C(C2)[C@H]2c3c(cc(C)c(OC)c3O)C[C@@H]([C@@H]1C#N)N2C (stereo partly drawn) | 2170 | 2.17 | 2.17 | – | 2.17 | 2.17 | – | – | – | – | –
10 | COc1c(C)cc2c(c1O)[C@@H]1C3Cc4c(OC(C)=O)c(C)c5c(c4[C@H](CNC(=O)/C=C/c4cccc(C(F)(F)F)c4)N3[C@@H](C#N)[C@H](C2)N1C)OCO5 (stereo partly drawn) | – | – | – | – | – | – | 0.1 | 0.1 | 0.1 | 0.1 | 0.1
11 | COc1c(C)cc2c(c1O)[C@@H]1C3Cc4c(OC(C)=O)c(C)c5c(c4[C@H](CNC(=O)[C@H](C)NC(=O)C(F)(F)F)N3[C@@H](O)[C@H](C2)N1C)OCO5 (stereo partly drawn) [drawing 110] | – | – | – | – | – | – | 0.1 | 0.1 | 0.1 | 0.1 | 0.1
12 | CCC(=O)NC[C@H]1c2c(c(OC(C)=O)c(C)c3c2OCO3)CC2[C@H]3c4c(cc(C)c(OC)c4O)C[C@@H]([C@H](C#N)N21)N3C (stereo partly drawn) | – | – | – | – | – | – | 0.1 | 0.1 | 0.1 | 0.1 | 0.1
13 | CCC(=O)N[C@@H](C)C(=O)NC[C@H]1c2c(c(OC(C)=O)c(C)c3c2OCO3)CC2[C@H]3c4c(cc(C)c(OC)c4O)C[C@@H]([C@H](O)N21)N3C (stereo partly drawn) [drawing 138] | – | – | – | – | – | – | 0.1 | 0.1 | 0.1 | 0.1 | 0.1
14 | CCCCCC(=O)NC[C@H]1c2c(c(OC(C)=O)c(C)c3c2OCO3)CC2[C@H]3c4c(cc(C)c(OC)c4O)C[C@@H]([C@H](C#N)N21)N3C (stereo partly drawn) [drawing 120] | 0.1 | – | – | – | – | – | 0.1 | 0.1 | 0.1 | 0.1 | 0.1
15 | COC1=C(C)C(=O)C2=C(C1=O)[C@H](CNC(=O)C(C)N)N1C(C2)[C@H]2c3c(cc(C)c(OC)c3O)C[C@@H]([C@@H]1C#N)N2C (stereo partly drawn) | 23 | – | – | – | – | – | – | – | – | – | –
